Measured values taken from the NIST ThermoML archive (doi:10.1016/j.jct.2019.07.008).
± gives the expanded uncertainty stated by the source.

Details: Liquid, Ebulliometric method (Recirculating still)

Row | Compound | vapor or sublimation pressure (355.2 K) | vapor or sublimation pressure (372.8 K)
1 | CC(C)(C)O [2-methylpropan-2-ol] | 100 ± 2 kPa | 
2 | O [water] |  | 100 ± 2 kPa
